These results are taken from patent US20250188092A1, “RIFAMYCIN ANALOGS” (THE REGENTS OF THE UNIVERSITY OF MICHIGAN, priority 2021, published 2025).

One data set has as its target T1, WT MTB RNAP (Mycobacterium tuberculosis, UniProt P9WGY9).
T1 construct: made in house; host or cells: E. coli BL21(DE3)
Format: biochemical. To be noted: lower limit of detection ~5 nM.

For a further data set, the system named is VERO cells (ATCC CRL-81). The experiment in a line: Vero cell toxicity. To be noted: 72 hours exposure. It counts as cell-based. As to the method:
Cytotoxicity for a mammalian cell line was determined by exposing VERO cells (ATCC CRL-81) to serial dilutions of test compounds for 72 hours, followed by addition of resazurin and measurement of fluorescence after 4 hours incubation (Choules, et al., Antimnicrob. Agents Chemother. 2019, 63, e02204-02218).

The target of data set [1] is T2, human pregnane X receptor (hPXR) (Homo sapiens, UniProt O75469).
T2 sequence (O75469 1-434): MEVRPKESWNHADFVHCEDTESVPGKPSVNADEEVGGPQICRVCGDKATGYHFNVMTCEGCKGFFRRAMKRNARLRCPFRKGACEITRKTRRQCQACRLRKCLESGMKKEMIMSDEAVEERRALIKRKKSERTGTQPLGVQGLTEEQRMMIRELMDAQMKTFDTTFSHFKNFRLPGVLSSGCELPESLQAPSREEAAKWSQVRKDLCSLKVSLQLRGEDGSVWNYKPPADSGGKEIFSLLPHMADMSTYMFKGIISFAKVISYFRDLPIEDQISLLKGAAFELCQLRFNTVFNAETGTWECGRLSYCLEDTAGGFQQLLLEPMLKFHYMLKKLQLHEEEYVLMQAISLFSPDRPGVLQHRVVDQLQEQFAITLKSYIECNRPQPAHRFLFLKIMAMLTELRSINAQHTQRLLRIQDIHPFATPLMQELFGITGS

In another data set the test system is MTB H37Rv ATCC 27294. The experiment in a line: MIC, microplate Alamar Blue assay (MABA). Particulars: for MIC90: MTB H37Rv ATCC 27294, microplate Alamar Blue assay, lowest concentration giving ≥90% reduction in fluorescence. Format: cell-based, Mycobacterium tuberculosis. In general terms: The colour change of resazurin is a common sign of viable cells or microbes.

The next data set concerns CYP 3A4. To be noted: human, 24 h.
For data set [2] the following is noted: human trials; cited from earlier work.
The target of another data set is hPXR (Homo sapiens, UniProt O75469). Particulars: cited from earlier work.
In another data set the test system is MTB H37Rv. Particulars: cited from earlier work.
Another data set concerns M. tuberculosis Erdman. Nature of the data set: Mouse acute efficacy study (lung CFU). Format: in vivo, BALB/c mice. Particulars: 15 mg/kg QD, day 21.
A further data set concerns M. tuberculosis H37Rv. The experiment in a line: Minimum bactericidal concentration (MBC, CFU Assay). Format: cell-based, Mycobacterium tuberculosis.
For data set [3] the following is noted: mouse, in vivo.

What is called IC50 is the point on the concentration scale where inhibition reaches its midpoint. A word on the MIC90: it is an inhibitory concentration at the 90% level, which refers to growth in some studies and to a panel of isolates in others. A word on the half-life: it is the time needed for the level to fall by half in the phase considered.

SMILES strings stand for the structures. Values after ≈ are worked out from the molar mass of the structure shown. Like-named read-outs stand apart in the source and are kept apart here.

T1 sequence (P9WGI1 whole entry): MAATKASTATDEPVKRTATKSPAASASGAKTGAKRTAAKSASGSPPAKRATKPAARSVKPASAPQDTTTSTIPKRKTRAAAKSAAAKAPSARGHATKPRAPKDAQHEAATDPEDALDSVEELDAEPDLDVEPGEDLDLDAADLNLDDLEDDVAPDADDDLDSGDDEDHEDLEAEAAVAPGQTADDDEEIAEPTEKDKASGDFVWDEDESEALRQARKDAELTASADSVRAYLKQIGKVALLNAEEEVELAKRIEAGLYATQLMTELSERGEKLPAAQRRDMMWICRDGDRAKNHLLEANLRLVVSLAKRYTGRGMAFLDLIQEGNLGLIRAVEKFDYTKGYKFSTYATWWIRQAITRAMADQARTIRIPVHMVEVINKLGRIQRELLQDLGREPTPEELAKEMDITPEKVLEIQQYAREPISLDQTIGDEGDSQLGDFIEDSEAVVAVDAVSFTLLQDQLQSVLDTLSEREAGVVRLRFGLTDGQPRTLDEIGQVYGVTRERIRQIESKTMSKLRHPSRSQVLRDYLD
T1 sequence (P9WGY7 whole entry, further chain): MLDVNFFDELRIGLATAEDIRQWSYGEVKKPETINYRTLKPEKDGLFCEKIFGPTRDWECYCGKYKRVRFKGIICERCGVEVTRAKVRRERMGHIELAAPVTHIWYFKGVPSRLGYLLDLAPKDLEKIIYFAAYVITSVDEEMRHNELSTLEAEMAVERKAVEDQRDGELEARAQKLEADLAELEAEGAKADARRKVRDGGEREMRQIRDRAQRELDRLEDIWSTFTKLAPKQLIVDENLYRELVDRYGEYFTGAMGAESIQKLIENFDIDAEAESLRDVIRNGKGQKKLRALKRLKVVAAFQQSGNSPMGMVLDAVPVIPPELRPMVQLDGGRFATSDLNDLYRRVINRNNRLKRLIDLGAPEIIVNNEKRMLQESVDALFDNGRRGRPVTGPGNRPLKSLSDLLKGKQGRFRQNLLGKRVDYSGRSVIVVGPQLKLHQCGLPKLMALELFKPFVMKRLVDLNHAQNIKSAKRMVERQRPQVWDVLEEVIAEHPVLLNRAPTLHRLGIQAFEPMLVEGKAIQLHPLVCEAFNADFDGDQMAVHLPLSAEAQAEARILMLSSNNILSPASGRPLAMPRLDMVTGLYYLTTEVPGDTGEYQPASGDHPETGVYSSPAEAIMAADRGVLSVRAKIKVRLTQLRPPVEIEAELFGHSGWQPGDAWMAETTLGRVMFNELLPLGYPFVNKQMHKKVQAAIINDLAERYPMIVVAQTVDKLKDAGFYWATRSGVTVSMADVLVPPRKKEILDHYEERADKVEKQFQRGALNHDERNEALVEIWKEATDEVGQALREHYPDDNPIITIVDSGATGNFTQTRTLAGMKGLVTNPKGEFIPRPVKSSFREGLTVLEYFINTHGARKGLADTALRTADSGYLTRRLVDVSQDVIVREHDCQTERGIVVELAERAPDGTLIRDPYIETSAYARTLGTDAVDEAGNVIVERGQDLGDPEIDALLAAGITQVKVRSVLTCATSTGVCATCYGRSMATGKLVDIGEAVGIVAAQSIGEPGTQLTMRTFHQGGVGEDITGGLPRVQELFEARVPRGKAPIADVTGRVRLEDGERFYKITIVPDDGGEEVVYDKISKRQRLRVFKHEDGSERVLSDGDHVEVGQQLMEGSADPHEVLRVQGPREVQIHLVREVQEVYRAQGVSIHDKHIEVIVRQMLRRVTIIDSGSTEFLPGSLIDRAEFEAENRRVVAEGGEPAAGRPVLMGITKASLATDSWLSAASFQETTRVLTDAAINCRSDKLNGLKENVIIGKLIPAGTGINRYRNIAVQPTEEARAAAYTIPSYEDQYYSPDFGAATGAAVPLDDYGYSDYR
T1 sequence (P9WGY5 whole entry, further chain): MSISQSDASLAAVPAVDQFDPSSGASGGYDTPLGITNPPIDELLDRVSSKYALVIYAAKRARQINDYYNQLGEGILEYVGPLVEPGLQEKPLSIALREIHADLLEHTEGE
T1 sequence (P9WGZ1 whole entry, further chain): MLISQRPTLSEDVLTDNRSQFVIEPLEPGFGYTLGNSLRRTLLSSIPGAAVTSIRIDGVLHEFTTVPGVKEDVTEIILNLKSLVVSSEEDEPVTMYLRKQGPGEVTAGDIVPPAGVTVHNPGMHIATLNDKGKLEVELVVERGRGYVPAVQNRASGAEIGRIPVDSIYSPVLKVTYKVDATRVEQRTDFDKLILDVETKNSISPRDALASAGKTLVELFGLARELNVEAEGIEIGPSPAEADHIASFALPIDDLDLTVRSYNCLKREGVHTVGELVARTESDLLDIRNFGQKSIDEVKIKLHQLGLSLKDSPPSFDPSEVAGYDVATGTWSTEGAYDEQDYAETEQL
T1 sequence (P9WGY9 whole entry): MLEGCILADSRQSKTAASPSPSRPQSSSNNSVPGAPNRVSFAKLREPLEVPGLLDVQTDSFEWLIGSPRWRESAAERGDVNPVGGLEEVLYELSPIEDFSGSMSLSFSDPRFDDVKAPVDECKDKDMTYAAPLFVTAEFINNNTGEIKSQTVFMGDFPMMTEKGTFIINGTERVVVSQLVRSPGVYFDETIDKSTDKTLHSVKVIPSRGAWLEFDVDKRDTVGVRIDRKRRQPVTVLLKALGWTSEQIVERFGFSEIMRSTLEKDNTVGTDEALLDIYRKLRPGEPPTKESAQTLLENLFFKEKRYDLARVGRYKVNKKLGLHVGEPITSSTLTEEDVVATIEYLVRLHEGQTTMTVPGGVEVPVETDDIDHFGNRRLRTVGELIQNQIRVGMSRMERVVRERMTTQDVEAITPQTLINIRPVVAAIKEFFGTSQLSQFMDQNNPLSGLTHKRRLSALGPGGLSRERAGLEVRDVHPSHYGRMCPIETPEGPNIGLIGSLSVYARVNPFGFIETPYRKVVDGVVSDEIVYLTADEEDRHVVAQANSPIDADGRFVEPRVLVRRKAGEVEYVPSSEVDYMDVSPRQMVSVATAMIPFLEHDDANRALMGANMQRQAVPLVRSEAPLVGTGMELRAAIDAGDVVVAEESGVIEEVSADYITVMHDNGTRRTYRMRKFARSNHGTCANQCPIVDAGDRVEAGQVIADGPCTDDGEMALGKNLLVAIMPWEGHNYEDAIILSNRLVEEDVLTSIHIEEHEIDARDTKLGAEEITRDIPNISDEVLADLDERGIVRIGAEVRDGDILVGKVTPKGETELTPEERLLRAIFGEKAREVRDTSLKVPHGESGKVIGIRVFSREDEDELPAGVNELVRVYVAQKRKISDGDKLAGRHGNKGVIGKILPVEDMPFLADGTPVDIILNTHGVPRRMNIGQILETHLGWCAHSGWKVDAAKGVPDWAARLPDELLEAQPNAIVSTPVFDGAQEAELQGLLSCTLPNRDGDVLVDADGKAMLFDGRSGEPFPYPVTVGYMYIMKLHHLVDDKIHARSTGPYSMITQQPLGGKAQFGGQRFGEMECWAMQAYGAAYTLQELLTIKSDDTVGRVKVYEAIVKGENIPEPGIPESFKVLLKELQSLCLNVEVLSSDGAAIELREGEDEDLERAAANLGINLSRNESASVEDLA

Regarding `CO[C@H]1/C=C/O[C@@]2(C)Oc3c(C)c(O)c4c(=O)c(c5oc6cc(N7CCC(CC(=O)O)CC7)cc(OCc7ccc(CN8CCOCC8)cc7)c6nc-5c4c3C2=O)NC(=O)/C(C)=C\C=C\[C@H](C)[C@H](O)[C@@H](C)[C@@H](O)[C@@H](C)[C@H](OC(C)=O)[C@@H]1C` [Compound 17l, 2-{1-[(7S,9E,11S,12R,13S,14R,15R,16R,17S,18S,19E,21Z)-13-(acetyloxy)-2,15,17-trihydroxy-11-methoxy-3,7,12,14,16,18,22-heptamethyl-32-{[4-(morpholin-4-ylmethyl)phenyl]methoxy}-6,23,37-trioxo-8,27,38-trioxa-24,34-diazahexacyclo-[23.11.1.1^4,7.0^5,36.0^26,35.0^28,33]octatriaconta-1,3,5(36)9,19,21,25,28,30,32,34-undecaen-30-yl]piperidin-4-yl)acetic acid], the 50% inhibitory concentration (IC50) on WT MTB RNAP was 13 nM. Besides, the IC50 in the data set on VERO cells (ATCC CRL-81) is above 10000 nM. For the same compound, in the data set on DPX2 cells, the “DPX2 Viability @ 6.25 μM” value came to 107% and the “DPX2 Viability @ 25 μM” value is reported as 102%. Also, in data set [1], the “hPXR Fold Act. (lucif) @ 6.25 μM” value is 1.1 fold and the “hPXR Fold Act. (lucif) @ 25 μM” value is reported as 1.9 fold. In the data set on MTB H37Rv ATCC 27294, the “MIC90 MABA Rel to RMP” value came out at 7.0 and the MIC90 was 0.187 µM (≈ 0.212 µg/mL).

On to `CO[C@H]1/C=C/O[C@@]2(C)Oc3c(C)c(O)c4c(=O)c(c5oc6cc(N7CCN(C(=O)c8cccc(-c9ccccn9)c8)CC7)cc(OCc7ccc(CN8CCOCC8)cc7)c6nc-5c4c3C2=O)NC(=O)/C(C)=C\C=C\[C@H](C)[C@H](O)[C@@H](C)[C@@H](O)[C@@H](C)[C@H](OC(C)=O)[C@@H]1C` [Compound 17r, (7S,9E,11S,12R,13S,14R,15R,16R,17S,18S,19E,21Z)-2,15,17-trihydroxy-11-methoxy-3,7,12,14,16,18,22-heptamethyl-32-{[4-(morpholin-4-ylmethyl)phenyl]methoxy}-6,23,37-trioxo-30-(4-{[3-(pyridin-2-yl)phenyl]carbonyl}piperazin-1-yl)-8,27,38-trioxa-24,34-diazahexacyclo[23.11.1.1^4,7.0^5,36.0^26,35.0^28,33]octatriaconta-1,3,5(36)9,19,21,25,28,30,32,34-undecaen-13-yl acetate], for which the IC50 on WT MTB RNAP amounted to 9.8 nM. Further, the IC50 in the data set on VERO cells (ATCC CRL-81) is above 10000 nM. Also, in the data set on DPX2 cells, the “DPX2 Viability @ 6.25 μM” value was determined as 105% and the “DPX2 Viability @ 25 μM” value is recorded as 94%. Moreover, in data set [1], the “hPXR Fold Act. (lucif) @ 6.25 μM” value came to 1 fold and the “hPXR Fold Act. (lucif) @ 25 μM” value is recorded as 1 fold. In the data set on MTB H37Rv ATCC 27294, the “MIC90 MABA Rel to RMP” value came to 0.46 and the MIC90 worked out at 0.023 µM.

Consider `CO[C@H]1/C=C/O[C@@]2(C)Oc3c(C)c(O)c4c(=O)c(c5oc6cc(N7CCC(CC(=O)O)CC7)cc(N7CCC(CC(=O)O)CC7)c6nc-5c4c3C2=O)NC(=O)/C(C)=C\C=C\[C@H](C)[C@H](O)[C@@H](C)[C@@H](O)[C@@H](C)[C@H](OC(C)=O)[C@@H]1C` [Compound 17v, 2-{1-[(7S,9E,11S,12R,13S,14R,15R,16R,17S,18S,19E,21Z)-13-(acetyloxy)-32-[4-(carboxymethyl)piperidin-1-yl]-2,15,17-trihydroxy-11-methoxy-3,7,12,14,16,18,22-heptamethyl-6,23,37-trioxo-8,27,38-trioxa-24,34-diazahexacyclo-[23.11.1.1^4,7.0^5,36.0^26,35.0^28,33]octatriaconta-1,3,5(36)9,19,21,25,28,30,32,34-undecaen-30-yl]piperidin-4-yl)acetic acid], for which it took 27 nM to reach half-maximal inhibition on WT MTB RNAP (IC50). This compound showed an IC50 with VERO cells (ATCC CRL-81) above 10000 nM. In the data set on DPX2 cells, the “DPX2 Viability @ 6.25 μM” value stood at 110% and the “DPX2 Viability @ 25 μM” value came to 100%. For the same compound, in data set [1], the “hPXR Fold Act. (lucif) @ 6.25 μM” value amounted to 1.2 fold and the “hPXR Fold Act. (lucif) @ 25 μM” value came out at 1.6 fold.

For `CO[C@H]1/C=C/O[C@@]2(C)Oc3c(C)c(O)c4c(O)c(c(/C=N/N5CCN(C6CCCC6)CC5)c(O)c4c3C2=O)NC(=O)/C(C)=C\C=C\[C@H](C)[C@H](O)[C@@H](C)[C@@H](O)[C@@H](C)[C@H](OC(C)=O)[C@@H]1C` [RFP, rifapentine, reference compound], in the data set with CYP 3A4 (6.25 μM), the “hPXR Fold Act. (CYP 3A4) @ 6.25 μM” value stood at 20.3 fold. The “hPXR Fold Act. (CYP 3A4) @ 25 μM” value in the data set on CYP 3A4 (25 μM) was 20.5 fold. Further, in the data set with DPX2 cells (human, 24 h, 6.25 μM), the “DPX2 Viability @ 6.25 μM” value was found to be 104%. The “DPX2 Viability @ 25 μM” value in the data set with DPX2 cells (human, 24 h, 25 μM) came to 105%.

For the compound `CO[C@H]1/C=C/O[C@@]2(C)Oc3c(C)c(O)c4c(=O)c(c5oc6cc(N7CCN(CC(C)C)CC7)cc(O)c6nc-5c4c3C2=O)NC(=O)/C(C)=C\C=C\[C@H](C)[C@H](O)[C@@H](C)[C@@H](O)[C@@H](C)[C@H](OC(C)=O)[C@@H]1C` [RLZ, rifalazil, reference compound], in data set [2], the half-life is 60 to 100 h. Moreover, the “DPX2 Viability @ 6.25 μM” value in the data set with DPX2 cells (6.25 μM, 24 h) came to 108%. For the same compound, the “loss of cell viability” value in the data set with DPX2 cells (at 100 pt) is on record as around 2 fold. Further, in the data set on DPX2 cells (human), the “DPX2 Viability @ 25 μM” value is 96%. Besides, in [1], the “activation of hPXR” value was “no activation”. At hPXR, the hPXR activation entry was “does not activate”. The “MIC90 MABA Rel to RMP” value with MTB H37Rv ATCC 27294 is given as 0.04. This compound also came in with an MIC90 against MTB H37Rv ATCC 27294 (Mycobacterium tuberculosis) of 0.0011 µM (≈ 0.00104 µg/mL). For the same compound, the “more potent than RMP against MTB H37Rv in vitro” value in the data set with MTB H37Rv is 29 fold.

`CO[C@H]1/C=C/O[C@@]2(C)Oc3c(C)c(O)c4c(O)c(c(/C=N/N5CCN(C)CC5)c(O)c4c3C2=O)NC(=O)/C(C)=C\C=C\[C@H](C)[C@H](O)[C@@H](C)[C@@H](O)[C@@H](C)[C@H](OC(C)=O)[C@@H]1C` [RMP, rifampin, reference compound]: the CFU/Mouse with M. tuberculosis Erdman (CMC-Tween vehicle) is given as 857; in the data set on M. tuberculosis Erdman (PEG-water vehicle), 8,443. The compound also displayed an IC50 in the data set with VERO cells (ATCC CRL-81) (Chlorocebus sabaeus, Vero) above 100000 nM. Also, the “MBC99 Day 7 (CFU Assay) MBC99 Rel to RMP” value against M. tuberculosis H37Rv (CFU Assay MBC99 relative to rifampin (RMP = 1)) is 1. The MBC in the data set on M. tuberculosis H37Rv (Mycobacterium tuberculosis, 168 h, Day 7, M. tuberculosis H37Rv, ≥99% reduction in colony forming units, read-out: MBC99 Day 7 (CFU Assay) MBC99) is 0.13 µM (≈ 0.107 µg/mL). The “adverse effects noted in the mice” value in [3] is “no adverse effects”. Further, in the data set on MTB H37Rv ATCC 27294 (MABA MIC90 relative to rifampin (RMP = 1)), the “MIC90 MABA Rel to RMP” value was 1. Further, in the data set with MTB H37Rv ATCC 27294 (Mycobacterium tuberculosis), the MIC90 was found to be 0.027 µM (≈ 0.0222 µg/mL).
